# Source: publication PMC11873037 (Nature Communications, 2025)
# Tests used:
# [1] = biological target: T1, ChREBPα (Rattus norvegicus, UniProt Q8VIP2); experiment: immunostaining, nuclear localization of ChREBPα in INS-1 cells; type: cell-based
# T1 sequence (Q8VIP2 1-865): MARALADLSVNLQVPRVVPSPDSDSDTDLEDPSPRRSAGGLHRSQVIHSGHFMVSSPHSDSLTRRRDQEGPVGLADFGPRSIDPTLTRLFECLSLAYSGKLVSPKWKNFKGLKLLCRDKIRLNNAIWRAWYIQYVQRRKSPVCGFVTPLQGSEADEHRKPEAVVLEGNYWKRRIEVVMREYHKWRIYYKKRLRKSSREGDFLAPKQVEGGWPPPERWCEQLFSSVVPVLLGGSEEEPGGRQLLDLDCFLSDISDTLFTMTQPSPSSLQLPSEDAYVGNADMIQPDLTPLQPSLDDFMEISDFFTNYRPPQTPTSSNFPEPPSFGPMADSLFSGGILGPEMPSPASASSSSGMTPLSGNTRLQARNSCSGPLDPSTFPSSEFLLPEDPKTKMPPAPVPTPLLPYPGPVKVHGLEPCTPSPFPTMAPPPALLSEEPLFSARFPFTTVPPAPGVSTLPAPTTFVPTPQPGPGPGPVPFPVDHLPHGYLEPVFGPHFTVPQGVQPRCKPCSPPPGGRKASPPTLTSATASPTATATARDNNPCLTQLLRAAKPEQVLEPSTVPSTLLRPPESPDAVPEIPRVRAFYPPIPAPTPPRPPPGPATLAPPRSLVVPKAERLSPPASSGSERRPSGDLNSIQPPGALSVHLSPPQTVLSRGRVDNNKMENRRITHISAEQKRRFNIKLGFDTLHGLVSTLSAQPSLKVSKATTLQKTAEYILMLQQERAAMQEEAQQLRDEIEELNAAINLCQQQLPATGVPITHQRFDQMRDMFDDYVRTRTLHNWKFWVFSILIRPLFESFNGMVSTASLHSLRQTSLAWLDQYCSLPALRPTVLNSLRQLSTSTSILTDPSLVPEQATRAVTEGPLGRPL
# [2] = biological target: T2, ChREBPα/14-3-3β (Homo sapiens, UniProt P31946+Q9NP71); experiment: FA compound titration, stabilization of FITC-ChREBPα peptide/14-3-3β; type: binding; conditions: for EC50: EC50, FITC-ChREBPα peptide 10 nM, 14-3-3β 150 nM, mean ± SD, n = 2; for stabilization of the ChREBPα/14-3-3 PPI, in words: FA-based compound titrations
# T2 sequence (P31946 1-246): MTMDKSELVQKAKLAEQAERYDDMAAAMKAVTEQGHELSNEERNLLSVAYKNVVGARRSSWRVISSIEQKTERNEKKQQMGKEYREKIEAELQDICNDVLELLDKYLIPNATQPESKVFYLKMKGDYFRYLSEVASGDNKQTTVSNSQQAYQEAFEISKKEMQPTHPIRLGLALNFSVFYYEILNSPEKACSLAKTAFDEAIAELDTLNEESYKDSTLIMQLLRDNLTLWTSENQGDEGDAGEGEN
# T2 sequence (Q9NP71 117-142 limits assumed): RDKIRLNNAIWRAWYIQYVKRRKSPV
# [3] = test system: INS-1 cells; experiment: cytotoxicity in low glucose; type: cell-based, rat
# [4] = test system: INS-1 cells; experiment: cell death in glucolipotoxic conditions; type: cell-based, rat; conditions: for cell death in glucolipotoxic conditions, dose response: 5 and 10 μM, 20 mM glucose+500 µM palmitate, 48 h
# [5] = test system: INS; experiment: qPCR INS mRNA in human islets; type: cell-based; conditions: 10 µM 43, 24 h
# [6] = test system: ChREBPβ; experiment: immunostaining c-term ChREBP; type: cell-based, human; conditions: 48 h
# [7] = test system: human TXNIP promoter; experiment: luciferase reporter driven by the human TXNIP promoter in INS-1 cells; type: cell-based, rat; conditions: 10 µM 43, 24 h
# [8] = biological target: T2, ChREBPα/14-3-3β; experiment: biochemical
# [9] = test system: β-cell maturity markers or glucose sensing and processing genes; experiment: qPCR other β-cell maturity markers or glucose sensing and processing genes; type: cell-based, human; conditions: 10 µM 43, 24 h
# [10] = test system: TAZ, ExoS, ERα, CRAF, ChREBP peptides/14-3-3 isoforms (γ, ζ, σ); type: binding; conditions: 100 µM 43
# [11] = test system: human islets, β-cells; experiment: SPARKL assay, β-cell death in glucolipotoxicity; type: cell-based; conditions: 10 µM; 20 mM glucose+500 μM palmitate
# [12] = test system: INS-1 cells; experiment: kinetics of cell proliferation, total cell numbers; type: cell-based, rat; conditions: 10 μM 43
# [13] = test system: ChREBPα/14-3-3; experiment: proximity ligation assay ChREBPα and pan 14-3-3; type: cell-based, rat; conditions: high (20 mM) glucose
# [14] = biological target: T2, ChREBPα/14-3-3β; conditions: fit of 2D titration with thermodynamic equilibrium model; compound 0–500 µM
# [15] = test system: ChREBPβ; experiment: qPCR ChREBPβ mRNA in human islets; type: cell-based; conditions: 10 µM 43, 24 h; high glucose or glucolipotoxicity
# [16] = test system: primary human islets; experiment: total insulin content; type: cell-based
# [17] = test system: INS-1 cells; experiment: ATP/ADP measurements; type: cell-based, rat; conditions: 10 μM 43; high (20 mM) glucose
# [18] = test system: INS-1 cells; experiment: calcium imaging; type: cell-based, rat
# [19] = test system: BRAF, CRAF, p65, USP8, ERα, Pin1, ExoS peptides/14-3-3β; experiment: FA selectivity studies, statement over all other client peptides; type: binding; conditions: up to 100 µM
# [20] = test system: PDX1; experiment: qPCR PDX1 mRNA in human islets; type: cell-based; conditions: 10 µM 43, 24 h
# [21] = test system: primary human islets; experiment: glucose-stimulated insulin secretion; type: cell-based; conditions: pre-treated 24 h, high glucose
# [22] = test system: primary human islets; experiment: insulin secretion stimulation index in response to KCl; type: cell-based; conditions: 30 mM KCl
# [23] = test system: NFATC1/14-3-3; experiment: proximity ligation assay NFATC1 and pan 14-3-3; type: cell-based, rat; conditions: 10 μM 43; high (20 mM) glucose
# [24] = biological target: T3, ChREBP (Rattus norvegicus, UniProt Q8VIP2); experiment: CRISPR/Cas9 engineered INS-1 cells; type: cell-based; conditions: high glucose and glucolipotoxic conditions
# T3 sequence (Q8VIP2 1-865): T1 sequence (Q8VIP2 1-865)
# [25] = test system: ChREBPα/all seven 14-3-3 isoforms; experiment: FA protein titrations, statement over all seven 14-3-3 isoforms; type: binding; conditions: 100 µM 43
# [26] = test system: PDX1; experiment: immunostaining PDX1 protein in dispersed islets; type: cell-based, human; conditions: 48 h
# [27] = test system: ALDH1A3; experiment: qPCR ALDH1A3 mRNA in human islets; type: cell-based
# [28] = test system: dispersed human islet cells; experiment: β-cell death after adenoviral ChREBPβ overexpression or shRNA; type: cell-based; conditions: 10 μM 43
compound,measurement,setting,value
"NC(=O)c1ncn([C@@H]2O[C@H](CO)[C@@H](O)[C@H]2O)c1N [AICAR, reference compound]",nuclear translocation of ChREBPα,[1]; 1 mM AICAR,translocation of ChREBPα is not blocked
O=C(COc1ccccc1P(=O)(O)O)NCCc1ccc(OCc2ccccn2)cc1 [compound 9],EC50,[2],7.6 ± 0.5 µM
same,"stabilization of the ChREBPα/14-3-3 PPI, in words",[2],increased the stabilization efficiency
O=C(COc1ccccc1P(=O)(O)O)NCCc1ccc(OCc2cccnc2)cc1 [compound 10],"stabilization of the ChREBPα/14-3-3 PPI, in words",[2],increased the stabilization efficiency
O=C(COc1ccccc1P(=O)(O)O)NCCc1ccc(OCc2ccncc2)cc1 [compound 11],"stabilization of the ChREBPα/14-3-3 PPI, in words",[2],increased the stabilization efficiency
O=C(NCCc1ccccc1)C(Oc1ccccc1P(=O)(O)O)c1ccccc1 (stereo not drawn) [compound 12],Active in biochemical assays,[2],not active in the biochemical assay
same,Cytotoxic in low [glucose],[3],neither generally cytotoxic
same,Rescue from glucolipotoxicity,[4],nor rescued the cells from glucolipotoxicity
O=C(COc1ccc(OP(=O)(O)O)cc1)NCCc1ccccc1 [compound 19],EC50,[2],17.4 ± 3.2 µM
O=C(COc1ccccc1B(O)O)NCCc1ccccc1 [compound 23],"stabilization of the ChREBPα/14-3-3 PPI, in words",[2],inactive
NS(=O)(=O)c1ccccc1OCC(=O)NCCc1ccccc1 [compound 24],"stabilization of the ChREBPα/14-3-3 PPI, in words",[2],inactive
O=C(COc1ccccc1P(=O)(O)O)NCC(F)(F)c1cccc(F)c1 [compound 43],INS mRNA downregulation (de-differentiation) in glucolipotoxicity,[5],this de-differentiation was prevented
same,upregulation of ChREBPβ at protein level,[6],prevented upregulation of ChREBPβ
same,glucose response of the TXNIP gene,[7],prevents the glucose response of the TXNIP gene
same,Kd,[8],162 µM
same,other β-cell maturity markers or glucose sensing and processing genes,[9],unchanged
same,ChREBPα stabilization selectivity among 14-3-3 isoforms,[10],preserved
same,"β-cell death in glucolipotoxic conditions, in words",[11],remarkable decrease in β-cell death
same,Active in biochemical assays,[2],active in biochemical assays
same,glucose-stimulated proliferation,[12],prevented glucose-stimulated proliferation
same,interaction between 14-3-3 and ChREBPα (PLA),[13],remained unchanged
same,cooperativity factor (α),[14],72
same,upregulation of ChREBPβ at mRNA level,[15],prevented upregulation of ChREBPβ
same,Cytotoxic in low [glucose],[3],no cytotoxicity
same,insulin content,[16],no effect
same,ATP/ADP ratio,[17],enhanced mitochondrial activity
same,calcium upregulation in response to glucose,[18],no effect
same,effect on other 14-3-3 client peptides (selectivity),[19],without affecting any other client peptide
same,PDX1 mRNA downregulation (de-differentiation) in glucolipotoxicity,[20],this de-differentiation was prevented
same,"GSIS stimulation index, in words",[21],improved glucose-stimulated insulin secretion (GSIS) stimulation index (SI)
same,SI in response to KCl,[22],no effect
same,14-3-3 dissociation from NFATC1 (PLA),[23],glucose promoted 14-3-3 dissociation from NFATC1
same,"build up of nuclear ChREBPβ, in words",[24],prevents the built up of nuclear ChREBPβ
same,PPI stabilization with 14-3-3 isoforms,[25],PPI stabilization among all isoforms
same,Rescue from glucolipotoxicity,[4],protected the β-cells from glucolipotoxicity
same,glucolipotoxic cell death in INS-1 cells,"[4]; 10 µM 43, kinetics over 72 h",prevented
same,"cell death in glucolipotoxic conditions, dose response",[4],significant attenuation of cell death
same,PDX1 protein levels in glucolipotoxicity,[26],rescued
same,ALDH1A3 mRNA,[27]; high glucose or glucolipotoxicity,unaffected
same,ALDH1A3 mRNA,[27]; low glucose,significantly decreased
same,protection from apoptosis due to overexpression of ChREBPβ,[28],unable to protect human islet cells from apoptosis
same,nuclear translocation of ChREBPα,[1]; glucose + palmitate,preventing ChREBPα’s nuclear translocation
same,nuclear translocation of ChREBPα,[1]; high glucose,blocked the transient translocation of ChREBPα
O=C(COc1ccccc1P(=O)(O)O)NCC(F)(F)c1ccc(F)c(F)c1 [compound 53],Kd,[8],110 µM
same,"β-cell death in glucolipotoxic conditions, in words",[11],remarkable decrease in β-cell death
same,Active in biochemical assays,[2],active in biochemical assays
same,cooperativity factor (α),[14],126
same,Cytotoxic in low [glucose],[3],no cytotoxicity
same,effect on other 14-3-3 client peptides (selectivity),[19],without affecting any other client peptide
same,Rescue from glucolipotoxicity,[4],protected the β-cells from glucolipotoxicity
same,"cell death in glucolipotoxic conditions, dose response",[4],significant attenuation of cell death
